The source of these data is patent publication US7560482B2, “Inhibitors of plasmepsins” (The Johns Hopkins University, priority 2001, dated 2009).

Test [1] addresses T1, human Cathepsin D (Homo sapiens, UniProt P07339).
T1 construct: purchased
Nature of the test: Cathepsin D inhibition assay, hydrolysis of chromogenic substrate. Type of test: biochemical. The procedure:
(§1) The specific activity of plasmepsin II from Plasmodium falciparum (Plm II) cloned in and purified from Escherchia coli and commercially available human Cathepsin D were measured by following the hydrolysis of the chromogenic substrate Ala-Leu-Glu-Arg-Thr-nPhe-Phe-Ser-Phe-Pro-Thr-OH (California Peptide Research Inc., Napa, Calif.). The decrease in absorbance upon hydrolysis is monitored at 300 nm. Typical Plasmepsin II preparations hydrolyze chromogenic substrate at 4-5 s^−1 at 37° C. The inhibition assays were performed at 25° C. in 10 mM sodium formate, 2% DMSO, pH 4.0. These pH conditions mimic the conditions in the food vacuole of the parasite. […] Inhibition constants (Ki) for the inhibitors are obtained at the desired temperature and solvent conditions by measuring the rate of substrate hydrolysis at increasing amounts of inhibitors. Exemplary results from three compounds (KNI-10033, KNI-10030 and KNI-10006) are shown in FIG. 7A-C, and the results obtained with all KNI compounds tested are given in Table 1.

Test [2] concerns the target T2, plasmepsin II from Plasmodium falciparum (Plm II) (Plasmodium falciparum, UniProt P46925).
T2 construct: made in house; host or cells: Escherichia coli
Briefly: Plasmepsin II inhibition assay, hydrolysis of chromogenic substrate. It is filed as biochemical. As to conditions: for Discrimination Factor: Fold Selectivity for Plasmepsin II over Cathepsin D: ratio of the Ki for Cathepsin D to the Ki for Plasmepsin II. The procedure: FIG. 7A-C. Inhibition of Plasmepsin II from Plasmodium falciparum by KNI-10033, KNI-10030 and KNI-10006 at 20° C. in 10 mM sodium citrate, 100 mM NaCl, 2% DMSO, pH 4.0. The inhibition constants are 3 nM, 11 nM and 0.5 rLM respectively.
as §1

Setting [3] is: 25° C., 10 mM sodium formate, 2% DMSO, pH 4.0, fit to competitive inhibition, read-out: Ki CatD.
Where [4] appears, read: Table 2, read-out: Ki Cathepsin D.
Where [5] appears, read: 25° C., 10 mM sodium formate, 2% DMSO, pH 4.0, fit to competitive inhibition, read-out: Ki Plm II.
Setting [6] is: Table 2, read-out: Ki Plasmepsin II.

Read-outs that look alike come from different tables or passages of the source.

T1 sequence (P07339 65-412): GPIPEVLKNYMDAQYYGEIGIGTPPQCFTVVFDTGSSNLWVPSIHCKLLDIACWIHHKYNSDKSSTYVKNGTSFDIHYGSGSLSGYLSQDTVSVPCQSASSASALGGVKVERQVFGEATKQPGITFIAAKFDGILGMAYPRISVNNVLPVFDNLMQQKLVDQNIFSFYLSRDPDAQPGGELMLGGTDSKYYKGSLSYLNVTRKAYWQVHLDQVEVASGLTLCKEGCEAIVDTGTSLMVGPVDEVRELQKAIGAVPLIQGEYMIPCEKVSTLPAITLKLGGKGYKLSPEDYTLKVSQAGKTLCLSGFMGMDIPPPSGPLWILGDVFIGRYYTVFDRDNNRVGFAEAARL
T2 sequence (P46925 125-453): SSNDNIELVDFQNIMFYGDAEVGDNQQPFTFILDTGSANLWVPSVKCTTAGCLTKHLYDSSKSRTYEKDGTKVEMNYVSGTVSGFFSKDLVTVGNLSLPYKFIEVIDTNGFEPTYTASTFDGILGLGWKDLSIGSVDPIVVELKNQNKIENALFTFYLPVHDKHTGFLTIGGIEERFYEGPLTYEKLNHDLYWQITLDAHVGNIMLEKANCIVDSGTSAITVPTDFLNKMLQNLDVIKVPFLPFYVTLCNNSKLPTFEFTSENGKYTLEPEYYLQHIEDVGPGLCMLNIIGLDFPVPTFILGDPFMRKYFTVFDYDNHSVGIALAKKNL

Regarding `Cc1cccc(C)c1OCC(=O)N[C@@H](Cc1ccccc1)[C@H](O)C(=O)N1CSC(C)(C)[C@H]1C(=O)N[C@H](CO)c1ccccc1` [KNI-10043], the Ki is 0.053 ± 0.008 µM in test [1] (setting [3]), 0.053 µM in test [1] (setting [4]), 0.022 ± 0.005 µM in test [2] (setting [5]) and 0.022 µM in test [2] (setting [6]). Moreover, the “inhibition constants against Plasmepsin II, in words” value in test [2] was “nanomolar and subnanomolar range”. The “Discrimination Factor: Fold Selectivity for Plasmepsin II over Cathepsin D” value in test [2] was 2.4.
Take `Cc1cccc(C)c1OCC(=O)NC(Cc1ccccc1)C(O)C(=O)N1CSC(C)(C)C1C(=O)NC(CO)c1ccccc1` (stereo not drawn) [KNI-10044]: the inhibition constant Ki in test [1] (setting [3]) worked out at 1.04 ± 0.178 µM; in test [2] (setting [5]), 0.532 ± 0.07 µM.
Taken in the same sequence, the figures for `CC(C)(C)NC(=O)[C@H]1N(C(=O)[C@@H](O)[C@H](Cc2ccccc2)NC(=O)COc2cccc(Cl)c2)CSC1(C)C` [KNI-10045] were 6.16 ± 0.671 µM and 1.08 ± 0.165 µM.
Taken in the same sequence, the figures for `Cc1cccc(C)c1OCC(=O)N[C@@H](Cc1ccccc1)[C@H](O)C(=O)N1CSC(C)(C)[C@H]1C(=O)NCc1ccccc1` [KNI-10046] were 0.26 ± 0.023 µM and 0.096 ± 0.02 µM.
Taken in the same sequence, the figures for `Cc1cccc(C)c1OCC(=O)N[C@@H](Cc1ccccc1)[C@H](O)C(=O)N1CSC(C)(C)[C@H]1C(=O)NCc1ccccc1O` [KNI-10047] were 0.252 ± 0.053 µM and 0.055 ± 0.007 µM.
Consider `Cc1cccc(C)c1OCC(=O)N[C@@H](Cc1ccccc1)[C@H](O)C(=O)N1CSC(C)(C)[C@H]1C(=O)NCc1cccc(O)c1` [KNI-10048], for which the Ki in test [1] (setting [3]) stood at 0.771 ± 0.097 µM; in test [2] (setting [5]), 0.099 ± 0.014 µM.
In the same order, the values of `CC(C)C(NC(=O)OCc1ccccc1)C(=O)NC(Cc1ccccc1)C(O)C(=O)N1CSC(C)(C)C1C(=O)NC(C)(C)C` (stereo not drawn) [KNI-10049] are 2.58 ± 0.682 µM and 1.51 ± 0.125 µM.
In the case of `CC(C)(C)NC(=O)[C@H]1N(C(=O)[C@@H](O)[C@H](Cc2ccccc2)NC(=O)[C@H](Cc2ccccc2)NC(=O)COc2cccc3cnccc23)CSC1(C)C` [KNI-10051], the inhibition constant (Ki) in test [1] (setting [3]) turned out to be 6.51 ± 1.22 µM; in test [2] (setting [5]), 0.186 ± 0.014 µM.
In the same order, the values of `Cc1ccc(CNC(=O)[C@H]2N(C(=O)[C@@H](O)[C@H](Cc3ccccc3)NC(=O)COc3c(C)cccc3C)CSC2(C)C)cc1` [KNI-10052] are 1.32 ± 0.152 µM and 0.572 ± 0.054 µM.
With `Cc1cccc(CNC(=O)[C@H]2N(C(=O)[C@@H](O)[C@H](Cc3ccccc3)NC(=O)COc3c(C)cccc3C)CSC2(C)C)c1` [KNI-10053], the inhibitory constant (Ki) in test [1] (setting [3]) amounted to 0.36 ± 0.054 µM; in test [1] (setting [4]), 0.36 µM; in test [2] (setting [5]) it was 0.041 ± 0.007 µM; in test [2] (setting [6]), 0.041 µM. The “inhibition constants against Plasmepsin II, in words” value in test [2] was “nanomolar and subnanomolar range”. Further, in test [2], the “Discrimination Factor: Fold Selectivity for Plasmepsin II over Cathepsin D” value is on record as around 9.
`Cc1cccc(C)c1OCC(=O)NC(Cc1ccccc1)C(O)C(=O)N1CSC(C)(C)C1C(=O)NCc1ccc(O)cc1` (stereo not drawn) [KNI-10054]: the Ki in test [1] (setting [3]) was found to be 1.64 ± 0.146 µM; in test [2] (setting [5]) it was 0.273 ± 0.041 µM.
Taken in the same sequence, the figures for `CC(C)(C)NC(=O)C1N(C(=O)C(O)C(Cc2ccccc2)NC(=O)C(CCC(N)=O)NC(=O)COc2cccc3cnccc23)CSC1(C)C` (stereo not drawn) [KNI-10055] were 6.28 ± 0.981 µM and 1.17 ± 0.071 µM.
In the same order, the values of `CC(C)C(NC(=O)COc1ccccc1)C(=O)NC(Cc1ccccc1)C(O)C(=O)N1CSC(C)(C)C1C(=O)NC(C)(C)C` (stereo not drawn) [KNI-10056] are 1.28 ± 0.161 µM and 1.77 ± 0.154 µM.
Taken in the same sequence, the figures for `CCSC[C@H](NC(=O)COc1cccc2cnccc12)C(=O)N[C@@H](Cc1ccccc1)[C@H](O)C(=O)N1CSC(C)(C)[C@H]1C(=O)NC(C)(C)C` [KNI-10057] were 5.29 ± 0.633 µM and 0.428 ± 0.021 µM.

What is called Ki is a dissociation constant, usually derived from enzyme kinetics or from competition with a known ligand.
